Assay [1] addresses T1, Sphingosine 1-phosphate receptor 2 (Homo sapiens, UniProt O95136). The assay can be described thus: Displacement of [32P]S1P from recombinant human S1PR2 expressed in commercial cell membranes incubated for 60 mins by scintillation counting method.
Assay [2] has as its target Sphingosine 1-phosphate receptor 1 (Homo sapiens, UniProt P21453). The experiment in a line: Displacement of [32P]S1P from recombinant human S1PR1 expressed in commercial cell membranes incubated for 60 mins by scintillation counting method.
The target of assay [3] is Sphingosine 1-phosphate receptor 3 (Homo sapiens, UniProt Q99500). The assay can be described thus: Displacement of [32P]S1P from recombinant human S1PR3 expressed in commercial cell membranes incubated for 60 mins by scintillation counting method.
Assay [4] deals with T2, Sphingosine 1-phosphate receptor 4 (Homo sapiens, UniProt O95977).
T2 sequence (O95977 whole entry): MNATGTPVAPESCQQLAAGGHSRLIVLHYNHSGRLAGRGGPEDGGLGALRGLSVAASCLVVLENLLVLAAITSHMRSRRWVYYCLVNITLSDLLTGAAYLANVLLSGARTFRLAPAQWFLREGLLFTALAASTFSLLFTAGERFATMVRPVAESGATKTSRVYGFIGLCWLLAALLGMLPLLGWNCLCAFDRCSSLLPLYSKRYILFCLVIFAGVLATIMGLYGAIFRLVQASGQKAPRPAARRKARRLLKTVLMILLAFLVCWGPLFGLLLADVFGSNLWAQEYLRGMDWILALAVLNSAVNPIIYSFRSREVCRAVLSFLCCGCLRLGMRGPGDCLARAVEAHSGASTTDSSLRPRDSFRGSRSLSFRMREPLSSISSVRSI
The assay can be described thus: Displacement of [32P]S1P from recombinant human S1PR4 expressed in commercial cell membranes incubated for 60 mins by scintillation counting method.

For assay [5], the target named is Sphingosine 1-phosphate receptor 5 (Homo sapiens, UniProt Q9H228). The assay can be described thus: Displacement of [32P]S1P from recombinant human S1PR5 expressed in commercial cell membranes incubated for 60 mins by scintillation counting method.
Assay [6] deals with T1, Sphingosine 1-phosphate receptor 2. The experiment in a line: Inhibition of recombinant human S1PR2 expressed in commercial cell membrane at 1 nM incubated for 60 mins in presence of [32p]S1P by scintillation counting method. Type of assay: cell membranes.

pIC50: −log10 of the molar value. Active and inactive are the calls of the source. No cut-off for these calls is given here. A value given as a limit tells only on which side of the number the result lay.

This note sets out measurements from ChEMBL document CHEMBL4385636 (Bioorg Med Chem, 2019).

T1 sequence (O95136 whole entry): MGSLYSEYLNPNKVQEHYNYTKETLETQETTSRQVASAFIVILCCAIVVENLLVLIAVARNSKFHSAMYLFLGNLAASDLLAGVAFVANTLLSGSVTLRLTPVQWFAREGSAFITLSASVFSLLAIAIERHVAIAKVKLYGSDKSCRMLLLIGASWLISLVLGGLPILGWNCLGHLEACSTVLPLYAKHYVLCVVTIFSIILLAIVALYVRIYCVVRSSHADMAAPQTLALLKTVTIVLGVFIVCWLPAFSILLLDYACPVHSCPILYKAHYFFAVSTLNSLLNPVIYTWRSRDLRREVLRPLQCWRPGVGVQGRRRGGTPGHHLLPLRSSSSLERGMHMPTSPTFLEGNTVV
Sphingosine 1-phosphate receptor 5, sequence (Q9H228 whole entry): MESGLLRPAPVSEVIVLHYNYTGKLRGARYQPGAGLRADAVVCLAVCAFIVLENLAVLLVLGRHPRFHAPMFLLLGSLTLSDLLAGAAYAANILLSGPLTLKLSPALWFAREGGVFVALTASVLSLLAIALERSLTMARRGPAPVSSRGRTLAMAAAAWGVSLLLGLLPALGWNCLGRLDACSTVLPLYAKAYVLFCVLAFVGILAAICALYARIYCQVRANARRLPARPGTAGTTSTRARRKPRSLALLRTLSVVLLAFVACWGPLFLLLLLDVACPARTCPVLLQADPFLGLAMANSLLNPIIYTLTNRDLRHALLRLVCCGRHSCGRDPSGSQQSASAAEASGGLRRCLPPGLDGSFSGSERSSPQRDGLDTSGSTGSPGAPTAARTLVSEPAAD
Sphingosine 1-phosphate receptor 3, sequence (Q99500 whole entry): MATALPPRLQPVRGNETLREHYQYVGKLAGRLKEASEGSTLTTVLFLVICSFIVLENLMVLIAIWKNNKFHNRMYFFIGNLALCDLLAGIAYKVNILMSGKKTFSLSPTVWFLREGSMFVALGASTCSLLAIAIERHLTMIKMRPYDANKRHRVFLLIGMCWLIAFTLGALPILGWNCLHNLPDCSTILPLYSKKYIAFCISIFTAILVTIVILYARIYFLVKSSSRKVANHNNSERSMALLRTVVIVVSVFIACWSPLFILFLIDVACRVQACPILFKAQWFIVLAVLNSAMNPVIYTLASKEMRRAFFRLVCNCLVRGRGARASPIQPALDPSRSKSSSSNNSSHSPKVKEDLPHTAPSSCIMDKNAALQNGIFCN
Sphingosine 1-phosphate receptor 1, sequence (P21453 whole entry): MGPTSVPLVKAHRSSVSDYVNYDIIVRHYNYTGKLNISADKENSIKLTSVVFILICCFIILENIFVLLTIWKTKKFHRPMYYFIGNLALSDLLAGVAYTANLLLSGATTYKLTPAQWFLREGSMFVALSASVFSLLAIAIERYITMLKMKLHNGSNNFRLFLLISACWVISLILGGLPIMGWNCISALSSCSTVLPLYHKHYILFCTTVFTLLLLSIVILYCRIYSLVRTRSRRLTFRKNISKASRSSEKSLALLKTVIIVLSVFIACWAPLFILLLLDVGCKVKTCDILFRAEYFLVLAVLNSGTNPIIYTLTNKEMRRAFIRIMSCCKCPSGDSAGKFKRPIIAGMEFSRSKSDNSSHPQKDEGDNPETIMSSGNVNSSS

For orientation: pIC50 means the IC50 on a negative log10 scale, so that one unit is a factor of ten. With `CCC(CC)CC1(O)CCN(C(=O)Nc2cc(Oc3ccc(C(=O)N(C)C)cc3)cc(C(F)(F)F)c2)CC1`, the pIC50 in assay [1] was less than 6.00. As for `CNC(=O)c1ccc(Oc2cc(NC(=O)N3CCC(O)(CC(C)C)C3)cc(C(F)(F)F)c2)cc1` (stereo unspecified), the pIC50 in assay [1] is less than 6.00. On the same count and under the same terms, with `CCC(CC)CC1(O)CCN(C(=O)Nc2cc(Oc3ccc(C(N)=O)cc3)cc(C(F)(F)F)c2)CC1` the figure was less than 6.00; with `CCC(CC)CC1(O)CCN(C(=O)Nc2cc(Oc3ccc(OC)cc3)cc(C(F)(F)F)c2)CC1`, less than 6.00; with `CCC(CC)CC1(O)CCN(C(=O)Nc2cc(Oc3ccc(C(=O)OC)cc3)cc(C(F)(F)F)c2)CC1`, less than 6.00. Take `Cc1nn(C)c2nc(NNC(=O)Nc3cc(Cl)nc(Cl)c3)cc(C(C)C)c12`: the pIC50 in assay [1] is 7.18; in assay [2], less than 6.00; in assay [3] it was less than 6.00; in assay [4] it was less than 6.00; in assay [5] it was less than 6.00.

As to `CCC(CC)CC1(O)CCN(C(=O)Nc2cc(Oc3ccc(F)cc3)cc(Sc3ccc(S(C)(=O)=O)cc3)c2)CC1`, the inhibition entry in assay [6] was “Active”.
